Data published in patent EP2305680A2, “Novel salts of (1S,4R)-cis-4-[2-amino-6-(cyclopropylamino)-9H-purin-9-yl]-2-cyclopentene-1-methanol” (AUROBINDO PHARMA LIMITED, priority 2009, dated 2011).
In brackets after ≈: the same amount, converted by molar mass. Like-named read-outs stand apart in the source and are kept apart here.

Experiment: saturation solubility in various solvent systems
Format: physicochemical
Protocol: Solubility is the property of a solid, liquid, or gaseous chemical substance called solute to dissolve in a liquid solvent to form a homogeneous solution of the solute in the solvent. […] The saturation solubility of the compounds according to the present invention is measured in various solvent systems including simulated gastric fluid, pH 4.5 buffer, pH 6.8 buffer solution and pH 7.2 buffer solution. The compounds according to the present invention show better solubility as compared to abacavir sulphate in all solvent systems. Table- 1: Comparison of saturation solubility of Abacavir malonate with Abacavir sulphate (marketed salt)

[1] = solvent: pH 4.5 Sodium acetate buffer
[2] = solvent: pH 6.8 Phosphate buffer
[3] = solvent: pH 7.2 Phosphate buffer

SMILES | Solubility (0.1 N HCl, simulated gastric fluid, thermodynamic from solid, solvent: O.1N HC1, read-out: Solubility) [mg/mL] | Solubility [1] [mg/mL] | Solubility [2] [mg/mL] | Solubility [3] [mg/mL] | Solubility (water, thermodynamic from solid, solvent: Water, read-out: Solubility) [mg/mL] | Solubility (0.01n hcl, solvent: O.O1N HC1, read-out: Solubility) [mg/mL] | Solubility (0.1n hcl, simulated gastric fluid, thermodynamic from solid, solvent: O.1N HC1, read-out: Solubility) [mg/mL] | Solubility (solvent: Water) [mg/mL]
Nc1nc(NC2CC2)c2ncn([C@H]3C=C[C@@H](CO)C3)c2n1 [Abacavir Sulphate, reference compound] | 93.1 | 112.6 | 89.5 | 124.0 | 89.2 |  |  | 
Nc1nc(NC2CC2)c2ncn([C@H]3C=C[C@@H](CO)C3)c2n1 [Abacavir Malonate, (1S,4R)-4-[2-AMINO-(6-CYCLOPROPYLAMINO)-9H-PURIN-9-YL]-2-CYCLOPENTENE-1-METHANOL MALONATE] |  | 403.6 (≈ 1410 mM) | 425.2 (≈ 1480 mM) | 453.5 (≈ 1580 mM) |  | 733 (≈ 2560 mM) | 368 (≈ 1290 mM) | 116.2 (≈ 406 mM)
